Assay results reported in patent US11007274B2, “Compounds for medicinal applications” (Ausvir Therapeutics Pty LTD, priority 2015, dated 2021).
Where two headings read alike, the source gives them in different places. Marks after values point to notes of the source that are not given here.

Key:
[1] = tested on: Oseltamivir resistant strains; experiment: microbe, parasite or virus in culture; format: cell-based, influenza virus
influenza virus = format: cell-based

Q: For `CC(=O)N[C@H]1[C@H]([C@H](OC(=O)NCCCCCCCCCNC(=O)c2cc(C(=O)NCCCCCCCCCNC(=O)O[C@@H]([C@@H]3OC(C(=O)O)=C[C@H](NC(=N)N)[C@H]3NC(C)=O)[C@H](O)CO)c(C(=O)N[C@H](CC(=O)NCS(=O)(=O)O)C(=O)NCS(=O)(=O)O)cc2C(=O)N[C@H](CC(=O)NCS(=O)(=O)O)C(=O)NCS(=O)(=O)O)[C@H](O)CO)OC(C(=O)O)=C[C@@H]1NC(=N)N` [MD185, PK2PYR(Zn)2[(D-Asp)(NHCH2SO3)2]2], which IC50 ([1]; Influenza A virus, H3N2, read-out: IC50, inhibition of plaque number) is on record?
A: Its IC50 is 1 ng/mL.

Q: And the “IC50, inhibition of plaque number” value ([1]; pH 1)?
A: The value was 1-100^b ng/ml.

Q: What about the IC50 ([1]; unidentified influenza virus, pH 1, read-out: IC50, inhibition of plaque number) of the same compound?
A: The IC50 was 1 to 10 ng/mL.

Q: What about the IC50 ([1]; unidentified influenza virus, read-out: IC50, inhibition of plaque number) of the same compound?
A: Its IC50 is 1 to 10 ng/mL.

Q: And the EC50 (influenza virus)?
A: Its EC50 is 0.18/0.097 ng/ml.

Q: And the EC50 (influenza virus; read-out: EC50)?
A: Its EC50 is 0.097 nM.

Q: Which results are given for `CCOC(=O)C1=C[C@@H](OC(CC)CC)[C@H](NC(C)=O)[C@@H](N)C1` [Oseltamivir, reference compound]?
A: IC50 ([1]; Influenza A virus, H3N2; read-out: IC50, inhibition of plaque number): ≥ 1000 nM; IC50 ([1]; pH 1; read-out: IC50, inhibition of plaque number): ≥ 10000 nM; IC50 ([1]; read-out: IC50, inhibition of plaque number): ≥ 10000 nM; IC50 ([1]; unidentified influenza virus, pH 1; read-out: IC50, inhibition of plaque number): 100 nM; IC50 ([1]; unidentified influenza virus; read-out: IC50, inhibition of plaque number): 1000 nM
